ChEMBL document CHEMBL1152272, “Inhibitor scaffolds for 2-oxoglutarate-dependent histone lysine demethylases” (J Med Chem, 2008)

Legend:
[1] = Inhibition of 2-oxoglutarate-dependent human JMJD2E in presence of excess 2-oxoglutarate and 10 uM Fe2 by FDH coupled assay
[2] = Inhibition of 2-oxoglutarate-dependent human JMJD2E in presence of 50 uM Fe by FDH coupled assay
[3] = Inhibition of 2-oxoglutarate-dependent human JMJD2E in presence of excess H3K9me3 peptide and 10 uM Fe2 by FDH coupled assay
[4] = Inhibition of 2-oxoglutarate-dependent human JMJD2E preincubated for 30 mins by FDH coupled assay
[5] = Inhibition of human collagene prolyl-4-hydroxylase
Prolyl hydroxylase EGLN3 = Prolyl hydroxylase EGLN3 (Homo sapiens, UniProt Q9H6Z9); assay: Inhibition of human recombinant HIF PHD3
Prolyl hydroxylase EGLN3, sequence (Q9H6Z9 whole entry): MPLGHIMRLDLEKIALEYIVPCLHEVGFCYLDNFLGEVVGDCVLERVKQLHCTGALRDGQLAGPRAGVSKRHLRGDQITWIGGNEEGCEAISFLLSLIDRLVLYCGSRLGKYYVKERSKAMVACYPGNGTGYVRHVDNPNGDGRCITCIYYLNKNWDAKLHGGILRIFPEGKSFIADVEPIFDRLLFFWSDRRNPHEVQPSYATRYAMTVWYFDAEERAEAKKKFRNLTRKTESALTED

[6] = Inhibition of human collagene prolyl-3-hydroxylase
Prolyl hydroxylase EGLN2 = Prolyl hydroxylase EGLN2 (Homo sapiens, UniProt Q96KS0); assay: Inhibition of human recombinant HIF PHD1
Prolyl hydroxylase EGLN2, sequence (Q96KS0 whole entry): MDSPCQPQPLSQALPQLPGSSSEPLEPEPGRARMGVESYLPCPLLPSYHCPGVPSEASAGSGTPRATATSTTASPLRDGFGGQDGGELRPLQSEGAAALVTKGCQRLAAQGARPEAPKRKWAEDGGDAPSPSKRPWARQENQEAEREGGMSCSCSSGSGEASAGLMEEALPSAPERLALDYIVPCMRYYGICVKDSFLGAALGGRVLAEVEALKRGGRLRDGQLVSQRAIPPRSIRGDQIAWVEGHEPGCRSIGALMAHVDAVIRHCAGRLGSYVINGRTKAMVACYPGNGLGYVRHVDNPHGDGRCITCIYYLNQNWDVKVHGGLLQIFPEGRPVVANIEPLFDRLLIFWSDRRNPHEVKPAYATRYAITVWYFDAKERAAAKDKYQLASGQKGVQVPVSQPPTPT

Egl nine homolog 1 [7] = target: T1, Egl nine homolog 1 (Homo sapiens, UniProt Q9GZT9); assay: Inhibition of 2-oxoglutarate-dependent human recombinant HIF PHD2 preincubated for 1 hr
T1 sequence (Q9GZT9 whole entry): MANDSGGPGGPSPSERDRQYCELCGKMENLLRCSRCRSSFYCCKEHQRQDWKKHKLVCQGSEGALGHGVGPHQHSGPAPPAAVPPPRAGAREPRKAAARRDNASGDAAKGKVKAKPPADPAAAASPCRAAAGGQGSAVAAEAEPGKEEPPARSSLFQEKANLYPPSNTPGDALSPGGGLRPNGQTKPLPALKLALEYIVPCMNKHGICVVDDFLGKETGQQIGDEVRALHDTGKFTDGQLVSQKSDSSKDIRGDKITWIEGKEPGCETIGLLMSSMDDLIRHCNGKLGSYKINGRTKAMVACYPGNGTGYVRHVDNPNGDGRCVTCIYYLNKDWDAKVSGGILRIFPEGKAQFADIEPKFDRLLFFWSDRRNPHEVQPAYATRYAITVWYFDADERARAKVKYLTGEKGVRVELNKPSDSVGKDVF

[8] = target: Hypoxia-inducible factor 1-alpha inhibitor (Homo sapiens, UniProt Q9NWT6); assay: Inhibition of human FIH
Hypoxia-inducible factor 1-alpha inhibitor, sequence (Q9NWT6 whole entry): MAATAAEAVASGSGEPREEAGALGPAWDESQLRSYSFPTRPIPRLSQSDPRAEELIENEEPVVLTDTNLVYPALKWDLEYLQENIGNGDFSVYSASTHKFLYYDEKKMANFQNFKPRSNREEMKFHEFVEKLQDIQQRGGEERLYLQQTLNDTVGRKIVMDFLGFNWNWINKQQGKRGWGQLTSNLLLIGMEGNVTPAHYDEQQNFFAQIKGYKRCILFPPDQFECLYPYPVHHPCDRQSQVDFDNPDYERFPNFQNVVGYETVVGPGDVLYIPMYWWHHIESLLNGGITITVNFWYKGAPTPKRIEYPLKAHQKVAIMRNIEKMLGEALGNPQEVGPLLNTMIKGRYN

Egl nine homolog 1 [9] = target: T1, Egl nine homolog 1; assay: Inhibition of human recombinant PHD2

O=C(NO)c1cccc(O)c1
IC50 [1]: 300 µM
IC50 [2]: 19 µM
IC50 [3]: 28 µM
IC50 [4]: 4.8 µM

O=C(O)c1ccncc1C(=O)O
IC50 [1]: > 10000 µM
IC50 [3]: > 10000 µM

O=C(O)c1ccnc(C(=O)O)c1
IC50 [1]: 4.7 µM
Ki [5]: 2 µM
Ki (Prolyl hydroxylase EGLN3): 7 µM
Ki [6]: 9 µM
Ki (Prolyl hydroxylase EGLN2): 7 µM
IC50 [2]: 1.8 µM

O=C(O)c1cncc(C(=O)O)c1
IC50 [1]: > 10000 µM
IC50 [3]: > 10000 µM

O=C(O)C(=O)N[C@H](CCc1ccccc1)C(=O)O
IC50 [1]: 270 µM
IC50 [3]: 100 µM
IC50 [4]: 39 µM

O=C(O)C(=O)N[C@H](Cc1ccccc1)C(=O)O
IC50 [1]: 590 µM

O=C(O)c1cc(C(=O)O)ncn1
IC50 [1]: 73 µM
IC50 [3]: 27 µM

O=C(NO)c1cc(O)ccc1Oc1ccccc1
IC50 [1]: 340 µM
IC50 [3]: 360 µM

COc1ccc(O)cc1C(=O)NO
IC50 [1]: 300 µM
IC50 [2]: 160 µM
IC50 [3]: 230 µM

CCCC(=O)O [BUTYRIC ACID]
IC50 [1]: > 10000 µM
IC50 [3]: > 10000 µM

O=C(O)c1cccc(C(=O)O)n1 [DIPICOLINIC ACID]
IC50 [1]: 250 µM
IC50 [2]: 120 µM
IC50 [3]: 120 µM

O=C(O)/C=C/C(=O)O [FUMARIC ACID]
IC50 [1]: > 10000 µM
IC50 (Egl nine homolog 1 [7]): 3 µM
IC50 [3]: 1600 µM
IC50 [4]: 2300 µM

O=C(O)CNC(=O)C(=O)O [N-OXALYLGLYCINE]
Ki [8]: 1200 µM

O=C(O)c1ccc(C(=O)O)nc1 [PYRIDINE-2,5-DICARBOXYLIC ACID]
IC50 [1]: 1900 µM
Ki [5]: 0.8 µM
Ki (Prolyl hydroxylase EGLN3): > 300 µM
Ki [6]: > 1000 µM
Ki (Prolyl hydroxylase EGLN2): > 300 µM
Ki (Egl nine homolog 1 [9]): > 300 µM
IC50 [3]: 180 µM

O=C(O)c1cccnc1C(=O)O [QUINOLINIC ACID]
IC50 [1]: > 10000 µM
IC50 [3]: > 5000 µM

O=C(O)CCC(=O)O [SUCCINIC ACID]
IC50 [1]: > 10000 µM
IC50 [3]: 710 µM
IC50 [4]: 320 µM

CC(/C=C/C(=O)NO)=C\[C@@H](C)C(=O)c1ccc(N(C)C)cc1 [TRICHOSTATIN]
IC50 [4]: 28 µM
